The source of these data is patent US9598421B2, “Imidazopyridazine compounds” (Pfizer Inc., priority 2014, dated 2017).

Read-outs that look alike come from different tables or passages of the source. A value given as a limit tells only on which side of the number the result lay.

Common to all, as to type: biochemical
For one assay, the target named is Human PDE4C (Homo sapiens (Human), UniProt Q08493). Put plainly: PDE4C Scintillation Proximity Assay (SPA), inhibition of enzyme activity. The conditions noted are these: read-out: Human PDE4C FL. On the technique in general: SPA uses beads or plates that emit light when radiolabelled molecules are held near them.
Human PDE4C, sequence (Q08493 2-712): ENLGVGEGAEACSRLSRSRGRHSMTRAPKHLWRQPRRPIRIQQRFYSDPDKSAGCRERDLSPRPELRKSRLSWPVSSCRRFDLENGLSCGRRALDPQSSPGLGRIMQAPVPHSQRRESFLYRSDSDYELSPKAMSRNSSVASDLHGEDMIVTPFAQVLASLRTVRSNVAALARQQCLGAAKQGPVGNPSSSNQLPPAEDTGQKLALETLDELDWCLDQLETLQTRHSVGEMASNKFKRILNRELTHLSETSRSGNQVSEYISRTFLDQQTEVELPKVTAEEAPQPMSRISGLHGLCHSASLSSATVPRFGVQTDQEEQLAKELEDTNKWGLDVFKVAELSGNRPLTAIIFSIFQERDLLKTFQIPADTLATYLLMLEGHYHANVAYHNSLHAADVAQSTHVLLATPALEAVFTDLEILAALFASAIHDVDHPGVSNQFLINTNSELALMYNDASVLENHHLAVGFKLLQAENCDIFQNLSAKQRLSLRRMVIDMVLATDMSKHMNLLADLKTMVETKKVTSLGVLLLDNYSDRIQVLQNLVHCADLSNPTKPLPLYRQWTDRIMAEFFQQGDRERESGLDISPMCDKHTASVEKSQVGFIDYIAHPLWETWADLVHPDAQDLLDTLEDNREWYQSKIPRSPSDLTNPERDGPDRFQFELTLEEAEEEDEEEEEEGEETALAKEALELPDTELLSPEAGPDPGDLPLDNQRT
In another assay the target is Human PDE4D (Homo sapiens (Human), UniProt Q08499). Put plainly: PDE4D Scintillation Proximity Assay (SPA), inhibition of enzyme activity. Particulars: read-out: Human PDE4D FL.
Human PDE4D, sequence (Q08499 186-808): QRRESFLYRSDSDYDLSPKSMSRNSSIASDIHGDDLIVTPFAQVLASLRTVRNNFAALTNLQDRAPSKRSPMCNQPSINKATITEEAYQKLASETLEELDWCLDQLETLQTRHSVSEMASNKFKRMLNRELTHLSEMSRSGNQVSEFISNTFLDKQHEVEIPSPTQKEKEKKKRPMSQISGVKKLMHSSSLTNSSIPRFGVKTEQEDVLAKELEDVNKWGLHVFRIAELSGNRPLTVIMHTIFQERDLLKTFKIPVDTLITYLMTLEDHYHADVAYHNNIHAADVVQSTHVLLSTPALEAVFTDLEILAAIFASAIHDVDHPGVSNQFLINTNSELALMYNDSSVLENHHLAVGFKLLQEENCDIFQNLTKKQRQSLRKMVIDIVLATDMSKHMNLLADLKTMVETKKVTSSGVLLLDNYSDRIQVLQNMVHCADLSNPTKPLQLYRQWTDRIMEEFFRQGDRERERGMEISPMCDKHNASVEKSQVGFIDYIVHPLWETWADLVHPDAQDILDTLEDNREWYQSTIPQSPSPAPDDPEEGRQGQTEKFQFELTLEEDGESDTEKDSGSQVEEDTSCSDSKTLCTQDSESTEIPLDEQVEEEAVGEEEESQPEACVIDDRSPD
The target in a further assay is Human PDE4A (Homo sapiens (Human), UniProt P27815). Put plainly: PDE4A Scintillation Proximity Assay (SPA), inhibition of enzyme activity. The conditions noted are these: read-out: Human PDE4A FL.
Human PDE4A, sequence (P27815 other isoform, or with tags, fused parts or gaps): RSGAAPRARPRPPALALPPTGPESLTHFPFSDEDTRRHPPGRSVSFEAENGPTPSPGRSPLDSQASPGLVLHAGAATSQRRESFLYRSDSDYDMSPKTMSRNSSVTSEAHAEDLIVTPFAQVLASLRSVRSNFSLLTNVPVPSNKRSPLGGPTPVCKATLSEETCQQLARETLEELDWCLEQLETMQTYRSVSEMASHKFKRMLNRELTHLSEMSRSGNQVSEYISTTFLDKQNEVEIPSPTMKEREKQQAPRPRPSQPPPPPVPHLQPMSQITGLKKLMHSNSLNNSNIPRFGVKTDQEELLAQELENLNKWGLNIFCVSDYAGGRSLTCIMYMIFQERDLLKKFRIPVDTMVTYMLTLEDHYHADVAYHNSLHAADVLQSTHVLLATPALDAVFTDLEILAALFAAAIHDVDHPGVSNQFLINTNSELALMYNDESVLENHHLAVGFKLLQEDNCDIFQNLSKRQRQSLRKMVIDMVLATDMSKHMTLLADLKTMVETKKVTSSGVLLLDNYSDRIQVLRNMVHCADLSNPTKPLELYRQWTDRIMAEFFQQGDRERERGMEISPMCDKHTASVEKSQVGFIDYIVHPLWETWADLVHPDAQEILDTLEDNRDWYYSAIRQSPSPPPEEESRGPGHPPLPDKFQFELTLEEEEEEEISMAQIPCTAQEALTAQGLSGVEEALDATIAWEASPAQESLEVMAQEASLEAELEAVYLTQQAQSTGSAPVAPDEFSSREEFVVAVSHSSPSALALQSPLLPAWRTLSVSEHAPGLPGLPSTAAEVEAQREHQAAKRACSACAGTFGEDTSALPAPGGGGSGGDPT
[1] abbreviates: human recombinant enzyme, 1 μM cAMP substrate, 30 min at 25° C., geometric mean of 2-9 determinations unless otherwise indicated.

Protocol for Human PDE4A: (§1) The PDE4A3, PDE4B1, PDE4C1 and PDE4D3 assays use the Scintillation Proximity Assay (SPA) technology to measure the inhibition of human recombinant PDE4A1, PDE4B3, PDE4C1, and PDE4D3 enzyme activity by compounds in vitro. The PDE4A1, PDE4B3, PDE4C1, and PDE4D3 assays are run in parallel using identical parameters, except for the concentration of enzyme (80 pM PDE4A3, 40 pM PDE4B3, 40 pM PDE4C1 and 10 pM PDE4D). […] Reactions are incubated for 30 min at 25° C. The addition of 20 uL of 8 mg/ml yitrium silicate SPA beads (Perkin Elmer) stops the reaction. The plates are sealed (TopSeal, Perkin Elmer) and the beads are allowed to settle for 8 hrs, after which they are read on the Trilux Microbeta overnight.
Protocol for Human PDE4C: as §1

Take `CN(C(=O)c1nc2cccnn2c1-c1ccc(Cl)cc1)C1CC1` [Example 32, 3-(4-chlorophenyl)-N-cyclopropyl-N-methylimidazo[1,2-b]pyridazine-2-carboxamide]: the IC50 at Human PDE4C (setting [1]) is 0.469 µM; at Human PDE4D (setting [1]) it was more than 30 µM; at Human PDE4A (setting [1]), 1.03 µM.
For `CCCNC(=O)c1nc2cccnn2c1-c1cncc(Cl)c1` [Example 48, 3-(5-chloropyridin-3-yl)-N-propylimidazo[1,2-b]pyridazine-2-carboxamide], in that order: 0.212 µM, more than 7.67 µM and 0.768 µM.
The corresponding values for `O=C(NC1CC1)c1nc2cccnn2c1-c1cccc(Cl)c1` [Example 36, 3-(3-chlorophenyl)-N-cyclopropylimidazo[1,2-b]pyridazine-2-carboxamide] are 0.021 µM, 0.254 µM and 0.0237 µM.
The corresponding values for `N#Cc1ccc(-c2c(C(=O)NC3CC3)nc3cccnn23)c(F)c1` [Example 79, 3-(4-cyano-2-fluorophenyl)-N-cyclopropylimidazo[1,2-b]pyridazine-2-carboxamide] are 0.297 µM, more than 25.4 µM and 0.0488 µM.
On to `Cc1ccc(-c2c(C(=O)N[C@@H]3C[C@@H]3F)nc3cccnn23)cc1Cl` [Example 71, 3-(3-chloro-4-methylphenyl)-N-[(1R,2S)-2-fluorocyclopropyl]imidazo[1,2-b]pyridazine-2-carboxamide], for which the IC50 is 0.002 µM on Human PDE4C (setting [1]), 0.113 µM at Human PDE4D (setting [1]) and less than 0.000669 µM at Human PDE4A (setting [1]).
As for `N#Cc1cc(F)c(-c2c(C(=O)N3CCC3)nc3cccnn23)cc1F` [Example 24, 4-[2-(azetidin-1-ylcarbonyl)imidazo[1,2-b]pyridazin-3-yl]-2,5-difluorobenzonitrile], the IC50 at Human PDE4C (setting [1]) is 0.0597 µM; on Human PDE4D (setting [1]), more than 2.15 µM; at Human PDE4A (setting [1]) it was 0.00504 µM.
In the case of `CCCNC(=O)c1nc2cccnn2c1-c1ccc(Cl)c(F)c1` [Example 29, 3-(4-chloro-3-fluorophenyl)-N-propylimidazo[1,2-b]pyridazine-2-carboxamide], the IC50 on Human PDE4C (setting [1]) came out at 0.0138 µM; on Human PDE4D (setting [1]), 0.409 µM; at Human PDE4A (setting [1]) it was 0.00348 µM.
The corresponding values for `N#Cc1cc(F)c(-c2c(C(=O)NC3CC3)nc3cccnn23)cc1F` [Example 92, 3-(4-cyano-2,5-difluorophenyl)-N-cyclopropylimidazo[1,2-b]pyridazine-2-carboxamide] are 0.0425 µM, more than 1.44 µM and 0.00552 µM.
Take `O=C(c1nc2cccnn2c1-c1cc(F)c(Cl)c(F)c1)N1CCC1` [Example 47, azetidin-1-yl[3-(4-chloro-3,5-difluorophenyl)imidazo[1,2-b]pyridazin-2-yl]methanone]: the results for the IC50 at Human PDE4C (setting [1]), on Human PDE4D (setting [1]) and at Human PDE4A (setting [1]) were 0.0239 µM, 0.334 µM and 0.00737 µM, respectively.
The corresponding values for `O=C(NC1CC1)c1nc2cccnn2c1-c1ccnc(C(F)(F)F)c1` [Example 42, N-cyclopropyl-3-[2-(trifluoromethyl)pyridin-4-yl]imidazo[1,2-b]pyridazine-2-carboxamide] are 0.357 µM, less than 12.2 µM and 0.415 µM.
The corresponding values for `O=C(N[C@@H]1C[C@@H]1F)c1nc2cccnn2c1-c1ccc(Cl)cc1F` [Example 68, 3-(4-chloro-2-fluorophenyl)-N-[(1R,2S)-2-fluorocyclopropyl]imidazo[1,2-b]pyridazine-2-carboxamide] are 0.0251 µM, 2.62 µM and 0.0106 µM.
The corresponding values for `O=C(c1nc2cccnn2c1-c1ccc(Cl)c(F)c1)N1CCC1` [Example 13, azetidin-1-yl[3-(4-chloro-3-fluorophenyl)imidazo[1,2-b]pyridazin-2-yl]methanone] are 0.0173 µM, 0.669 µM and 0.00513 µM.
As for `O=C(NC1CC1)c1nc2cccnn2c1-c1ccc2ccnn2c1` [Example 22, N-cyclopropyl-3-(pyrazolo[1,5-a]pyridin-6-yl)imidazo[1,2-b]pyridazine-2-carboxamide], the IC50 came out at 0.0712 µM at Human PDE4C (setting [1]), 1.89 µM at Human PDE4D (setting [1]) and 0.0276 µM at Human PDE4A (setting [1]).
`N#Cc1ccc(-c2c(C(=O)NC3CC3)nc3cccnn23)cc1F` [Example 90, 3-(4-cyano-3-fluorophenyl)-N-cyclopropylimidazo[1,2-b]pyridazine-2-carboxamide]: the IC50 at Human PDE4C (setting [1]) amounted to 0.0255 µM; on Human PDE4D (setting [1]) it was 2.62 µM; at Human PDE4A (setting [1]), 0.0214 µM.
The corresponding values for `Cc1cc(Cl)ccc1-c1c(C(=O)NC2CC2)nc2cccnn12` [Example 12, 3-(4-chloro-2-methylphenyl)-N-cyclopropylimidazo[1,2-b]pyridazine-2-carboxamide] are 0.0896 µM, 5.22 µM and 0.0144 µM.
The corresponding values for `O=C(NC1CC1)c1nc2cccnn2c1-c1cc(F)c(Cl)c(F)c1` [Example 104, 3-(4-chloro-3,5-difluorophenyl)-N-cyclopropylimidazo[1,2-b]pyridazine-2-carboxamide] are 0.00469 µM, 0.145 µM and less than 0.000488 µM.
The corresponding values for `Cc1cc(-c2c(C(=O)N3CCC3)nc3cccnn23)c(F)cc1C#N` [Example 18, 4-[2-(azetidin-1-ylcarbonyl)imidazo[1,2-b]pyridazin-3-yl]-5-fluoro-2-methylbenzonitrile] are 0.147 µM, 8.2 µM and 0.055 µM.
For the molecule `COC1CN(C(=O)c2nc3cccnn3c2-c2ccc(Cl)cc2)C1` [Example 31, [3-(4-chlorophenyl)imidazo[1,2-b]pyridazin-2-yl](3-methoxyazetidin-1-yl)methanone], the IC50 is 5.81 µM on Human PDE4C (setting [1]), less than 26.2 µM on Human PDE4D (setting [1]) and 2.82 µM at Human PDE4A (setting [1]).
For `O=C(NC1CC1)c1nc2cccnn2c1-c1ccc(Cl)cc1F` [Example 40, 3-(4-chloro-2-fluorophenyl)-N-cyclopropylimidazo[1,2-b]pyridazine-2-carboxamide], in that order: 0.0581 µM, 9.02 µM and 0.0196 µM.
Consider `O=C(NC1CC1)c1nc2cccnn2c1-c1ccc(Cl)cc1` [Example 2, 3-(4-Chlorophenyl)-N-cyclopropylimidazo[1,2-b]pyridazine-2-carboxamide], for which the IC50 on Human PDE4C turned out to be 0.0279 µM; on Human PDE4D, 4.34 µM; at Human PDE4A, 0.0107 µM.
For `O=C(c1nc2cccnn2c1-c1ccc(Cl)c(Cl)c1)N1CCC1` [Example 83, azetidin-1-yl[3-(3,4-dichlorophenyl)imidazo[1,2-b]pyridazin-2-yl]methanone], the IC50 at Human PDE4C (setting [1]) was 0.04 µM; on Human PDE4D (setting [1]), 0.495 µM; at Human PDE4A (setting [1]), 0.00621 µM.
The corresponding values for `COc1ccc(-c2c(C(=O)N3CCC3)nc3cccnn23)cc1F` [Example 55, azetidin-1-yl[3-(3-fluoro-4-methoxyphenyl)imidazo[1,2-b]pyridazin-2-yl]methanone] are more than 1.55 µM, more than 20.9 µM and 0.176 µM.
As to `O=C(c1nc2cccnn2c1-c1ccc2c(c1)CCO2)N1CCC1` [Example 50, azetidin-1-yl[3-(2,3-dihydro-1-benzofuran-5-yl)imidazo[1,2-b]pyridazin-2-yl]methanone], the IC50 on Human PDE4C (setting [1]) was 0.235 µM; on Human PDE4D (setting [1]), 3.14 µM; at Human PDE4A (setting [1]) it was 0.0281 µM.
